Source: ChEMBL document CHEMBL1143950, “Antifungal and cytotoxic activities of some N-substituted aniline derivatives bearing a hetaryl fragment” (Bioorg Med Chem, 2008)
Converted amounts (≈) assume the structure as drawn.

What was measured:
Nannizzia gypsea = experiment: Antifungal activity against Microsporum gypseum C115 by microbroth dilution method; format: functional
Cryptococcus neoformans [1] = experiment: Antifungal activity against Cryptococcus neoformans IM 031706 by micro-broth dilution method; format: functional
Cryptococcus neoformans [2] = experiment: Antifungal activity against Cryptococcus neoformans IM 983036 by micro-broth dilution method; format: functional
MCF7 = experiment: Cytotoxicity against human MCF7 cells by SRB assay; format: functional, cell-based
Cryptococcus neoformans [3] = experiment: Antifungal activity against Cryptococcus neoformans ATCC 32264 by microbroth dilution method; format: functional
NCI-H460 = experiment: Cytotoxicity against human H460 cells by SRB assay; format: functional, cell-based
Candida tropicalis = experiment: Antifungal activity against Candida tropicalis C131 by micro-broth dilution method; format: functional
Candida albicans = experiment: Antifungal activity against Candida albicans ATCC 10231 by micro-broth dilution method; format: functional
Cryptococcus neoformans [4] = experiment: Antifungal activity against Cryptococcus neoformans IM 042074 by micro-broth dilution method; format: functional
Aspergillus fumigatus = experiment: Antifungal activity against Aspergillus fumigatus ATCC 26934 by micro-broth dilution method; format: functional
Aspergillus flavus = experiment: Antifungal activity against Aspergillus flavus ATCC 9170 by micro-broth dilution method; format: functional
Cryptococcus neoformans [5] = experiment: Antifungal activity against Cryptococcus neoformans IM 961951 by micro-broth dilution method; format: functional
SF-268 = experiment: Cytotoxicity against human SF268 cells by SRB assay; format: functional, cell-based
Aspergillus niger = experiment: Antifungal activity against Aspergillus niger ATCC 9029 by micro-broth dilution method; format: functional
Cryptococcus neoformans [6] = experiment: Antifungal activity against Cryptococcus neoformans IM 972724 by micro-broth dilution method; format: functional
Cryptococcus neoformans [7] = experiment: Antifungal activity against Cryptococcus neoformans IM 983040 by micro-broth dilution method; format: functional
Cryptococcus neoformans [8] = experiment: Antifungal activity against Cryptococcus neoformans IM 031631 by micro-broth dilution method; format: functional
Cryptococcus neoformans [9] = experiment: Antifungal activity against Cryptococcus neoformans IM 00319 by microbroth dilution method; format: functional
Cryptococcus neoformans [10] = experiment: Antifungal activity against Cryptococcus neoformans IM 972751 by microbroth dilution method; format: functional
Trichophyton rubrum = experiment: Antifungal activity against Trichophyton rubrum C113 by microbroth dilution method; format: functional
Saccharomyces cerevisiae = experiment: Antifungal activity against Saccharomyces cerevisiae ATCC 9763 by microbroth dilution method; format: functional
[11] = system: Trichophyton mentagrophytes; experiment: Antifungal activity against Trichophyton mentagrophytes ATCC 9972 by micro-broth dilution method; format: functional

SMILES	MIC (Nannizzia gypsea)	MIC (Cryptococcus neoformans [1])	MIC (Cryptococcus neoformans [2])	IC50 (MCF7)	MIC (Cryptococcus neoformans [3])	IC50 (NCI-H460)	MIC (Candida tropicalis)	MIC (Candida albicans)	MIC (Cryptococcus neoformans [4])	MIC (Aspergillus fumigatus)	MIC (Aspergillus flavus)	MIC (Cryptococcus neoformans [5])	IC50 (SF-268)	MIC (Aspergillus niger)	MIC (Cryptococcus neoformans [6])	MIC (Cryptococcus neoformans [7])	MIC (Cryptococcus neoformans [8])	MIC (Trichophyton rubrum)	MIC (Saccharomyces cerevisiae)	MIC [11]	also measured
Clc1ccc(NCc2ccco2)cc1Cl	6.25 µg/mL (≈ 25.8 µM)	100 µg/mL (≈ 413 µM)	25 µg/mL (≈ 103 µM)	8 µg/mL (≈ 33 µM)	25 µg/mL (≈ 103 µM)	8.7 µg/mL (≈ 35.9 µM)	62.5 µg/mL (≈ 258 µM)	62.5 µg/mL (≈ 258 µM)	25 µg/mL (≈ 103 µM)	50 µg/mL (≈ 207 µM)	50 µg/mL (≈ 207 µM)	100 µg/mL (≈ 413 µM)	8.2 µg/mL (≈ 33.9 µM)	62.5 µg/mL (≈ 258 µM)	25 µg/mL (≈ 103 µM)	100 µg/mL (≈ 413 µM)	100 µg/mL (≈ 413 µM)	3.12 µg/mL (≈ 12.9 µM)	50 µg/mL (≈ 207 µM)	12.5 µg/mL (≈ 51.6 µM)	MIC (Cryptococcus neoformans [9]): 100 µg/mL (≈ 413 µM); MIC (Cryptococcus neoformans [10]): 100 µg/mL (≈ 413 µM)
O=[N+]([O-])c1cccc(NCc2ccncc2)c1	12.5 µg/mL (≈ 54.5 µM)	–	–	> 10 µg/mL	50 µg/mL (≈ 218 µM)	> 10 µg/mL	100 µg/mL (≈ 436 µM)	100 µg/mL (≈ 436 µM)	–	100 µg/mL (≈ 436 µM)	200 µg/mL (≈ 872 µM)	–	< 10 µg/mL	100 µg/mL (≈ 436 µM)	–	–	–	6.25 µg/mL (≈ 27.3 µM)	50 µg/mL (≈ 218 µM)	12.5 µg/mL (≈ 54.5 µM)	–
Ic1ccc(NCc2ccncc2)cc1	12.5 µg/mL (≈ 40.3 µM)	100 µg/mL (≈ 322 µM)	50 µg/mL (≈ 161 µM)	> 10 µg/mL	25 µg/mL (≈ 80.6 µM)	> 10 µg/mL	50 µg/mL (≈ 161 µM)	50 µg/mL (≈ 161 µM)	50 µg/mL (≈ 161 µM)	50 µg/mL (≈ 161 µM)	100 µg/mL (≈ 322 µM)	100 µg/mL (≈ 322 µM)	> 10 µg/mL	50 µg/mL (≈ 161 µM)	25 µg/mL (≈ 80.6 µM)	100 µg/mL (≈ 322 µM)	50 µg/mL (≈ 161 µM)	6.25 µg/mL (≈ 20.2 µM)	50 µg/mL (≈ 161 µM)	12.5 µg/mL (≈ 40.3 µM)	MIC (Cryptococcus neoformans [9]): 50 µg/mL (≈ 161 µM); MIC (Cryptococcus neoformans [10]): 50 µg/mL (≈ 161 µM)
